{
  "source": "patent US20220281866A1",
  "about": "“5,8-DISUBSTITUTED-[1,2,4]TRIAZOLO[1,5-A]PYRIDINYL AND 5,8-DISUBSTITUTED-IMIDAZO[1,2-A]PYRIDINE DERIVATIVES USEFUL AS INHIBITORS OF ENTEROPEPTIDASE” (Janssen Pharmaceutica NV, priority 2019, published 2022)",
  "key": {"[1]": {"target": "T1, Recombinant full-length human EP (Enteropeptidase) (Homo sapiens, UniProt P98073)", "T1 construct": "Recombinant full-length human EP (PeproTech, Cat #450-48C); purchased PeproTech 450-48C", "T1 sequence (P98073 whole entry)": "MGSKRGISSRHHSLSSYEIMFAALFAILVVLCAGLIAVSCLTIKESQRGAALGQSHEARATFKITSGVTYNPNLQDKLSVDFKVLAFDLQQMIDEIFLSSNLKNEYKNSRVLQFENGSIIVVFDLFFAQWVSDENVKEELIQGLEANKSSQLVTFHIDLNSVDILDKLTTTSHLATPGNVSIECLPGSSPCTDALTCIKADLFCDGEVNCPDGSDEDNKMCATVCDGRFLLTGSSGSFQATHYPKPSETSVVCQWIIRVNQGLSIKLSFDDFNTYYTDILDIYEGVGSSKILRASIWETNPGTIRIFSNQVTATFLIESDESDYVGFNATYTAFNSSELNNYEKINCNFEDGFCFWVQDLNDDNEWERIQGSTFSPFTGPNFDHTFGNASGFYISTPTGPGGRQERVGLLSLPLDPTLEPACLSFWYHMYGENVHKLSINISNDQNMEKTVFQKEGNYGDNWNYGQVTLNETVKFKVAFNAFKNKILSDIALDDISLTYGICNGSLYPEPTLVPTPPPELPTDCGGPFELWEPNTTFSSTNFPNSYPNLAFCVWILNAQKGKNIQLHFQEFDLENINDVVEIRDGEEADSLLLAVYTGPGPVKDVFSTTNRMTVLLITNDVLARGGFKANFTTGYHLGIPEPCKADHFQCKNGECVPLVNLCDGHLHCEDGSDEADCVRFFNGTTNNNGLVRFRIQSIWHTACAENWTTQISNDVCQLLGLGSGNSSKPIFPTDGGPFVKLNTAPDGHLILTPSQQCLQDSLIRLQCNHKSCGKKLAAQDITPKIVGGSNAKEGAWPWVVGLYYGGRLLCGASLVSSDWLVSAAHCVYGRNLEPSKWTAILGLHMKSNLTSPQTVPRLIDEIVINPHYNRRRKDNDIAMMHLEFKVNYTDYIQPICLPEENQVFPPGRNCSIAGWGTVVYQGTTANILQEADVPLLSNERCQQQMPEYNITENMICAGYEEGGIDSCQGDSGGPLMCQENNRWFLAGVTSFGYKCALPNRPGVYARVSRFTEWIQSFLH", "test": "In vitro inhibition potencies against Enteropeptidase (EP), fluorescent peptide GDDDDK-naphthylamine substrate", "assay_type": "biochemical", "conditions": "300 μM substrate, 1.25 nM EP; for inhibition at 0.1 µM: compound 0.1 μM; for inhibition at 1 µM: compound 1 μM; for inhibition at 10 µM: compound 10 μM", "experimental": "In vitro inhibition potencies against Enteropeptidase (EP) Recombinant full-length human EP (PeproTech, Cat #450-48C) was used in this biochemical assay, with a quenched fluorescent labeled peptide GDDDDK-naphthylamine (NA) (Sigma, Cat #G5261) as the substrate in a buffer of 50 mM Tris-HCl pH 7.4, 200 mM NaCl and 0.01% Triton X-100. The enzyme activity was measured by following the formation of the cleavage product […](NA) by monitoring the fluorescence intensity (FI) at excitation/emission wavelengths of 340/410 nm. The steady-state kinetic characterization studies yielded an average of KM to be 412±22 μM and the apparent turnover number kcat^app of 11.8±0.4 s^−1 (N=2).\nCompound inhibition studies were carried out under the conditions of 300 μM substrate and 1.25 nM EP. Reaction progress curves were collected by reading the FI at 340/410 nm continuously for 1 hour at an interval of 1 minute.\nTo screen compounds of formula (I), inhibition was studied at 4 different compound concentrations of 10 μM, 1 μM, 0.1 μM and 0.01 μM. Initial velocity of the reaction was determined, and percent of inhibition was calculated by comparing to the reaction in the absence of compound.\nAccurate measurements of the inhibition potencies of selected compounds were studied in a 12-point dose-dependence fashion. […] Compound potency was measured by determining the inactivation rate constant (kobs) following the reaction change from the initial velocity vi to the steady-state velocity vs at various compound concentrations. The inactivation rate constants (kobs), were derived by fitting the reaction progress curves to eq. 1.\nwhere YT is the detection signal of the reaction at time t, vi and vs are the initial and the steady-state velocities of the reaction, t is the reaction time. Y0 is the background signal (when t=0).\nCompound binding mechanism was shown by plotting kobs˜[compound]. Hyperbolic fitting to eq. 2\nconforms to a two-step binding mechanism as shown in Scheme BIO-1.\nThe plateau of the curve is the forward step rate constant of the isomerization step k3, KI^app is the inhibitor concentration that leads to half-maximal rate of inhibition of enzyme under the assay conditions. Compound inhibition potency was reported by the value of k3/KI^app.\nA linear dependence of eq.3\nindicates a one-step binding mechanism as shown in Scheme BIO-2\nSlope of the linear fit gives the second-order rate constant of the compound binding k1, which is used to represent the compound inhibition potency.\n(§1) Representative compounds of the present invention were tested according to the procedures as described in Biological Example 1 and Biological Example 2 above, with results as listed in Table 2 and Table 3, below. Results are reported as the %-inhibition (% Inh) or Kinact/KI value. Variability for the functional assay was typically within 20%. For the column headed Kinact/KI the listed measurement is the result of duplicate dilutions."}, "[2]": {"target": "T2, Bovine trypsin (Bos taurus, UniProt P00760)", "T2 construct": "purchased Sigma-Aldrich T1426", "T2 sequence (P00760 24-246)": "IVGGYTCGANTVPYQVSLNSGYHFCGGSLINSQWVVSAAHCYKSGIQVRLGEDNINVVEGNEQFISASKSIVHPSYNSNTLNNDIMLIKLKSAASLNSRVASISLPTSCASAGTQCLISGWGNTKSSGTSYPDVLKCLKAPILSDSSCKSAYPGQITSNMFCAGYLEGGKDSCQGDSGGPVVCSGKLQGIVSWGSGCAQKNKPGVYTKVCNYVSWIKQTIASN", "test": "Biochemical Assay of Trypsin (T), H-D-CHA-AR-AMC substrate", "conditions": "15 μM substrate, 0.025 nM Trypsin; for inhibition at 0.1 µM: compound 0.1 μM; for inhibition at 1 µM: compound 1 μM; for inhibition at 10 µM: compound 10 μM", "experimental": "Bovine trypsin was purchased from Sigma-Aldrich (Cat No. T1426), and 7-amino-4-methylcoumarin (AMC) conjugated peptide H-D-cyclohexylalanine (D-CHA)-AR-AMC was used as the substrate in the assay. The protease activity of trypsin was followed by measuring AMC production by the emission fluorescence intensity of AMC at 460 nm with the excitation at 375 nm, in the same assay buffer as used in the EP assay. The enzyme kinetic characterization studies yielded an average of KM to be 3.9±0.5 μM and the apparent turnover number kcat^app of 33.8±0.4 s^−1 (N=2).\nStudies of compound inhibition against T were carried out under the conditions of 15 μM substrate and 0.025 nM Trypsin. Reaction progress curves were collected by reading the FI at 375/460 nm continuously for 1 hour at an interval of 1 minute. Similar to the procedure for Enteropeptidase described above, compounds of formula (I) were screened against Trypsin at 4 different concentrations to obtain the percent of inhibition at 10 μM, 1 μM, 0.1 μM and 0.01 μM, and accurate potencies of selected compounds against Trypsin were derived from detailed 12-point dose-dependence studies for time-dependent inhibitors.\nas §1"}},
  "data": [
    {"compound": "N=C(N)Nc1ccc(C(=O)Oc2ccc(CC(=O)NC(CC(=O)O)C(=O)O)n3ccnc23)cc1", "note": "(stereo not shown) [Compound 27, 2-(2-(8-(4-guanidinobenzoyloxy)imidazo[1,2-a]pyridin-5-yl)acetamido)succinic acid]", "values": [
      {"measurement": "inhibition at 0.1 µM", "setting": "[1]", "value": 81.2, "unit": "%"},
      {"measurement": "inhibition at 1 µM", "setting": "[1]", "value": 100, "unit": "%"},
      {"measurement": "inhibition at 10 µM", "setting": "[1]", "value": 100, "unit": "%"},
      {"measurement": "inhibition at 0.1 µM", "setting": "[2]", "value": 99.3, "unit": "%"},
      {"measurement": "inhibition at 1 µM", "setting": "[2]", "value": 100, "unit": "%"},
      {"measurement": "inhibition at 10 µM", "setting": "[2]", "value": 100, "unit": "%"}
    ]},
    {"compound": "N=C(N)Nc1ccc(C(=O)Oc2ccc(CC(=O)O)n3ncnc23)cc1Cl", "note": "[Compound 16, 2-(8-(3-chloro-4-guanidinobenzoyloxy)-[1,2,4]triazolo[1,5-a]pyridin-5-yl)acetic]", "values": [
      {"measurement": "inhibition at 0.1 µM", "setting": "[1]", "value": 18.7, "unit": "%"},
      {"measurement": "inhibition at 1 µM", "setting": "[1]", "value": 84.4, "unit": "%"},
      {"measurement": "inhibition at 10 µM", "setting": "[1]", "value": 101, "unit": "%"},
      {"measurement": "inhibition at 0.1 µM", "setting": "[2]", "value": 6.3, "unit": "%"},
      {"measurement": "inhibition at 1 µM", "setting": "[2]", "value": 56.6, "unit": "%"},
      {"measurement": "inhibition at 10 µM", "setting": "[2]", "value": 99.8, "unit": "%"}
    ]},
    {"compound": "CNC(=N)Nc1ccc(C(=O)Oc2ccc(CC(=O)O)n3ncnc23)cc1", "note": "[Compound 34, 2-(8-(4-(3-methylguanidino)benzoyloxy)-[1,2,4]triazolo[1,5-a]pyridin-5-yl)acetic acid]", "values": [
      {"measurement": "inhibition at 0.1 µM", "setting": "[1]", "value": 15.3, "unit": "%"},
      {"measurement": "inhibition at 1 µM", "setting": "[1]", "value": 80.1, "unit": "%"},
      {"measurement": "inhibition at 10 µM", "setting": "[1]", "value": 97.9, "unit": "%"},
      {"measurement": "inhibition at 0.1 µM", "setting": "[2]", "value": 9.6, "unit": "%"},
      {"measurement": "inhibition at 1 µM", "setting": "[2]", "value": 57.1, "unit": "%"},
      {"measurement": "inhibition at 10 µM", "setting": "[2]", "value": 97.7, "unit": "%"}
    ]},
    {"compound": "N=C(N)Nc1ccc(C(=O)Oc2ccc(C3OC(=O)NC3=O)n3ncnc23)cc1", "note": "(stereo not shown) [Compound 17, 5-(2,4-dioxooxazolidin-5-yl)-[1,2,4]triazolo[1,5-a]pyridin-8-yl 4-guanidinobenzoate]", "values": [
      {"measurement": "inhibition at 0.1 µM", "setting": "[1]", "value": 73, "unit": "%"},
      {"measurement": "inhibition at 1 µM", "setting": "[1]", "value": 101, "unit": "%"},
      {"measurement": "inhibition at 10 µM", "setting": "[1]", "value": 100, "unit": "%"},
      {"measurement": "inhibition at 0.1 µM", "setting": "[2]", "value": 99.8, "unit": "%"},
      {"measurement": "inhibition at 1 µM", "setting": "[2]", "value": 100, "unit": "%"},
      {"measurement": "inhibition at 10 µM", "setting": "[2]", "value": 100, "unit": "%"}
    ]},
    {"compound": "N=C(N)Nc1ccc(C(=O)Oc2ccc(CC(=O)N(CC(=O)O)CC(=O)O)n3ncnc23)cc1", "note": "[Compound 6, 2,2′-(2-(8-(4-guanidinobenzoyloxy)-[1,2,4]triazolo[1,5-a]pyridin-5-yl)acetamido)diacetic acid]", "values": [
      {"measurement": "inhibition at 0.1 µM", "setting": "[1]", "value": 20.9, "unit": "%"},
      {"measurement": "inhibition at 1 µM", "setting": "[1]", "value": 72.9, "unit": "%"},
      {"measurement": "inhibition at 10 µM", "setting": "[1]", "value": 101, "unit": "%"},
      {"measurement": "inhibition at 0.1 µM", "setting": "[2]", "value": 89.6, "unit": "%"},
      {"measurement": "inhibition at 1 µM", "setting": "[2]", "value": 99.9, "unit": "%"},
      {"measurement": "inhibition at 10 µM", "setting": "[2]", "value": 100, "unit": "%"}
    ]},
    {"compound": "COc1cc(C(=O)Oc2ccc(CC(=O)O)n3ncnc23)ccc1NC(=N)N", "note": "[Compound 12, 2-(8-(4-guanidino-3-methoxybenzoyloxy)-[1,2,4]triazolo[1,5-a]pyridin-5-yl)acetic acid]", "values": [
      {"measurement": "inhibition at 0.1 µM", "setting": "[1]", "value": 20.8, "unit": "%"},
      {"measurement": "inhibition at 1 µM", "setting": "[1]", "value": 87.1, "unit": "%"},
      {"measurement": "inhibition at 10 µM", "setting": "[1]", "value": 101, "unit": "%"},
      {"measurement": "inhibition at 0.1 µM", "setting": "[2]", "value": 13.8, "unit": "%"},
      {"measurement": "inhibition at 1 µM", "setting": "[2]", "value": 72.4, "unit": "%"},
      {"measurement": "inhibition at 10 µM", "setting": "[2]", "value": 99.9, "unit": "%"}
    ]},
    {"compound": "Cc1cc(C(=O)Oc2ccc(CC(=O)O)n3ncnc23)ccc1NC(=N)N", "note": "[Compound 15, 2-(8-(4-guanidino-3-methylbenzoyloxy)-[1,2,4]triazolo[1,5-a]pyridin-5-yl)acetic acid]", "values": [
      {"measurement": "inhibition at 0.1 µM", "setting": "[1]", "value": 1.3, "unit": "%"},
      {"measurement": "inhibition at 1 µM", "setting": "[1]", "value": 6.3, "unit": "%"},
      {"measurement": "inhibition at 10 µM", "setting": "[1]", "value": 36.7, "unit": "%"},
      {"measurement": "inhibition at 0.1 µM", "setting": "[2]", "value": -0.1, "unit": "%"},
      {"measurement": "inhibition at 1 µM", "setting": "[2]", "value": 8.4, "unit": "%"},
      {"measurement": "inhibition at 10 µM", "setting": "[2]", "value": 35.5, "unit": "%"}
    ]},
    {"compound": "N=C(N)Nc1ccc(C(=O)Oc2ccc(CCC(=O)O)n3ccnc23)cc1", "note": "[Compound 2, 3-(8-(4-guanidinobenzoyloxy)imidazo[1,2-a]pyridin-5-yl)propanoic acid]", "values": [
      {"measurement": "kinact/KI", "setting": "[1]; 12-point dose-dependence, time-dependent inhibition, duplicate dilutions, read-out: kinact/KI^App", "value": 24400, "unit": "M⁻¹ s⁻¹"},
      {"measurement": "inhibition at 0.1 µM", "setting": "[1]", "value": 27.6, "unit": "%"},
      {"measurement": "inhibition at 1 µM", "setting": "[1]", "value": 95.1, "unit": "%"},
      {"measurement": "inhibition at 10 µM", "setting": "[1]", "value": 100, "unit": "%"},
      {"measurement": "inhibition at 0.1 µM", "setting": "[2]", "value": 61, "unit": "%"},
      {"measurement": "inhibition at 1 µM", "setting": "[2]", "value": 100, "unit": "%"},
      {"measurement": "inhibition at 10 µM", "setting": "[2]", "value": 100, "unit": "%"}
    ]},
    {"compound": "N=C(N)Nc1ccc(C(=O)Oc2ccc(CC(=O)O)n3ncnc23)cc1I", "note": "[Compound 13, 2-(8-(4-guanidino-3-iodobenzoyloxy)-[1,2,4]triazolo[1,5-a]pyridin-5-yl)acetic acid]", "values": [
      {"measurement": "inhibition at 0.1 µM", "setting": "[1]", "value": -1.5, "unit": "%"},
      {"measurement": "inhibition at 1 µM", "setting": "[1]", "value": 15.8, "unit": "%"},
      {"measurement": "inhibition at 10 µM", "setting": "[1]", "value": 65, "unit": "%"},
      {"measurement": "inhibition at 0.1 µM", "setting": "[2]", "value": 0.9, "unit": "%"},
      {"measurement": "inhibition at 1 µM", "setting": "[2]", "value": 7.6, "unit": "%"},
      {"measurement": "inhibition at 10 µM", "setting": "[2]", "value": 45, "unit": "%"}
    ]}
  ]
}
